According to patent US11242334B2, “Heterocyclic compounds as kinase inhibitors, compositions comprising the heterocyclic compound, and methods of use thereof” (JS INNOPHARM (SHANGHAI) LTD, priority 2017, dated 2022):

How the values were obtained:
human ERK2 = target: T1, human ERK2 (Homo sapiens, UniProt P28482); test: LanthaScreen TR-FRET enzymatic assay, ERK2; settings: IC50 values of ERK2 biochemical activity; 5 μM ATP, 400 nM ATF2-GFP substrate
T1 construct: recombinantly expressed as GST-tagged full-length protein purified from E. coli; GST; purchased Invitrogen PV3311; host or cells: E. coli
How it was run: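 GST-tagged full-length ERK2 from E. coli, activated with MAP2K1, was used at 20 ng/ml with 400 nM GFP-ATF2(19-96) and 5 μM ATP (near Km). Compound was pre-incubated 15 min, and the reaction ran 1 h at room temperature. pThr71 was detected by Tb-antibody TR-FRET ratio, with IC50 from sigmoid fitting against 1% DMSO.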

Colo205 cell line = test: Colo205 cell proliferation assay (MTT assay, WST-8 readout); format: cell-based; settings: Homo sapiens; IC50 values of growth inhibition in Colo 205 cells; 72 hours
How it was run: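 Colo205 cells were seeded at 5,000 cells/well in RPMI-1640 with 10% FBS and attached for 24 h at 37° C. They were then exposed for 72 h to compound at final 50 μM to 0.005 μM (0.5% DMSO). Viability was read as WST-8 absorbance at 450 nm after 2 h, and IC50 of growth inhibition was determined.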

T1 sequence (P28482 whole entry): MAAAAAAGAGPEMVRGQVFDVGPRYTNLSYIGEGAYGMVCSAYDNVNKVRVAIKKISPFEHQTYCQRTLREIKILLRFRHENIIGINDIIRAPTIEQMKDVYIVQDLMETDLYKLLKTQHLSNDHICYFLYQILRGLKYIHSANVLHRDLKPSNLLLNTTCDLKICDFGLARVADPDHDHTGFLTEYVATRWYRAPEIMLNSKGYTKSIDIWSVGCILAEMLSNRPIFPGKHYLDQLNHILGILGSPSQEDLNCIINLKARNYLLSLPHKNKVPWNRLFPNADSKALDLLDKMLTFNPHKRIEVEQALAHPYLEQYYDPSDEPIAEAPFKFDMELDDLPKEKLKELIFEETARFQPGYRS

| IC50 (human ERK2) [nM] | IC50 (Colo205 cell line) [nM] | Structure (SMILES) |
| --- | --- | --- |
| < 10 | ≤ 500 | Cc1cc(-c2n[nH]c3ccc(-c4ccn(Cc5ccc(F)c(C(F)(F)F)c5)c(=O)c4)cc23)ccn1 [Example 77, 1-(4-fluoro-3-(trifluoromethyl)benzyl)-4-(3-(2-methylpyridin-4-yl)-1H-indazol-5-yl)pyridin-2(1H)-one] |
| 10 to 50 | 1000 to 5000 | Cc1cc(-c2n[nH]c3ccc(-c4ccn(Cc5ccc(F)c(OC(F)(F)F)c5)c(=O)c4)cc23)ccn1 [Example 78, 1-(4-fluoro-3-(trifluoromethoxy)benzyl)-4-(3-(2-methylpyridin-4-yl)-1H-indazol-5-yl)pyridin-2(1H)-one] |
| < 10 | 500 to 1000 | Cc1cc(-c2n[nH]c3ccc(-c4ccn(Cc5cc(F)cc(F)c5)c(=O)c4)cc23)ccn1 [Example 79, 1-(3,5-difluorobenzyl)-4-(3-(2-methylpyridin-4-yl)-1H-indazol-5-yl)pyridin-2(1H)-one] |
| < 10 | 1000 to 5000 | Cc1cc(-c2n[nH]c3ccc(-c4ccn(Cc5cccc(C(F)(F)F)c5F)c(=O)c4)cc23)ccn1 [Example 80, 1-(2-fluoro-3-(trifluoromethyl)benzyl)-4-(3-(2-methylpyridin-4-yl)-1H-indazol-5-yl)pyridin-2(1H)-one] |
| < 10 | ≤ 500 | Cc1cc(-c2n[nH]c3ccc(-c4ccn(Cc5cccc(F)c5F)c(=O)c4)cc23)ccn1 [Example 81, 1-(2,3-difluorobenzyl)-4-(3-(2-methylpyridin-4-yl)-1H-indazol-5-yl)pyridin-2(1H)-one] |
| < 10 | 500 to 1000 | Cc1cc(-c2n[nH]c3ccc(-c4ccn(Cc5cccc(F)c5N)c(=O)c4)cc23)ccn1 [Example 82, 1-(2-amino-3-fluorobenzyl)-4-(3-(2-methylpyridin-4-yl)-1H-indazol-5-yl)pyridin-2(1H)-one] |
| < 10 | 1000 to 5000 | Cc1cc(-c2n[nH]c3ccc(-c4ccn(Cc5cccc(F)c5NS(C)(=O)=O)c(=O)c4)cc23)ccn1 [Example 83, N-(2-fluoro-6-((4-(3-(2-methylpyridin-4-yl)-1H-indazol-5-yl)-2-oxopyridin-1(2H)-yl)methyl)phenyl)methanesulfonamide] |
| < 10 | ≤ 500 | Cn1cc(-c2n[nH]c3ccc(-c4ccn(Cc5ccc(F)c(Cl)c5)c(=O)c4)cc23)cn1 [Example 84, 1-(3-chloro-4-fluorobenzyl)-4-(3-(1-methyl-1H-pyrazol-4-yl)-1H-indazol-5-yl)pyridin-2(1H)-one] |
| < 10 | ≤ 500 | Cn1cc(-c2n[nH]c3ccc(-c4ccn(Cc5cc(Br)ccc5F)c(=O)c4)cc23)cn1 [Example 85, 1-(5-bromo-2-fluorobenzyl)-4-(3-(1-methyl-1H-pyrazol-4-yl)-1H-indazol-5-yl)pyridin-2(1H)-one] |
| < 10 | ≤ 500 | Cn1cc(-c2n[nH]c3ccc(-c4ccn(Cc5cc(F)cc(Br)c5)c(=O)c4)cc23)cn1 [Example 86, 1-(3-bromo-5-fluorobenzyl)-4-(3-(1-methyl-1H-pyrazol-4-yl)-1H-indazol-5-yl)pyridin-2(1H)-one] |
| < 10 | > 5000 | Cc1cc(-c2n[nH]c3ccc(-c4ccn(Cc5cccc(F)c5NC(N)=O)c(=O)c4)cc23)ccn1 [Example 87, 1-(2-fluoro-6-((4-(3-(2-methylpyridin-4-yl)-1H-indazol-5-yl)-2-oxopyridin-1(2H)-yl)methyl)phenyl)urea] |
| < 10 | 1000 to 5000 | CC(=O)Nc1c(F)cccc1Cn1ccc(-c2ccc3[nH]nc(-c4ccnc(C)c4)c3c2)cc1=O [Example 88, N-(2-fluoro-6-((4-(3-(2-methylpyridin-4-yl)-1H-indazol-5-yl)-2-oxopyridin-1(2H)-yl)methyl)phenyl)acetamide] |
| < 10 | ≤ 500 | Cc1cc(-c2n[nH]c3ccc(-c4ccn(Cc5ccnc(C(F)(F)F)c5)c(=O)c4)cc23)ccn1 [Example 89, 4-(3-(2-methylpyridin-4-yl)-1H-indazol-5-yl)-1-((2-(trifluoromethyl)pyridin-4-yl)methyl)pyridin-2(1H)-one] |
| < 10 | ≤ 500 | Cn1cc(-c2n[nH]c3ccc(-c4ccn(Cc5cccc(Br)c5)c(=O)c4)cc23)cn1 [Example 90, 1-(3-bromobenzyl)-4-(3-(1-methyl-1H-pyrazol-4-yl)-1H-indazol-5-yl)pyridin-2(1H)-one] |
| < 10 | 500 to 1000 | Cn1cc(-c2n[nH]c3ccc(-c4ccn(Cc5cccc(C(F)(F)F)c5)c(=O)c4)cc23)cn1 [Example 91, 4-(3-(1-methyl-1H-pyrazol-4-yl)-1H-indazol-5-yl)-1-(3-(trifluoromethyl)benzyl)pyridin-2(1H)-one] |
| < 10 | ≤ 500 | Cn1cc(-c2n[nH]c3ccc(-c4ccn(Cc5cc(F)cc(C(F)(F)F)c5)c(=O)c4)cc23)cn1 [Example 92, 1-(3-fluoro-5-(trifluoromethyl)benzyl)-4-(3-(1-methyl-1H-pyrazol-4-yl)-1H-indazol-5-yl)pyridin-2(1H)-one] |
| < 10 | ≤ 500 | Cn1cc(-c2n[nH]c3ccc(-c4ccn(Cc5cccc(I)c5)c(=O)c4)cc23)cn1 [Example 93, 1-(3-iodobenzyl)-4-(3-(1-methyl-1H-pyrazol-4-yl)-1H-indazol-5-yl)pyridin-2(1H)-one] |
| < 10 | 1000 to 5000 | Cc1cc(-c2n[nH]c3ccc(-c4ccn(Cc5ccc6cn[nH]c6c5)c(=O)c4)cc23)ccn1 [Example 94, 1-((1H-indazol-6-yl)methyl)-4-(3-(2-methylpyridin-4-yl)-1H-indazol-5-yl)pyridin-2(1H)-one] |
| < 10 | 1000 to 5000 | Cn1cc(-c2n[nH]c3ccc(-c4ccn(Cc5ccnc(C(F)(F)F)c5)c(=O)c4)cc23)cn1 [Example 95, 4-(3-(1-methyl-1H-pyrazol-4-yl)-1H-indazol-5-yl)-1-((2-(trifluoromethyl)pyridin-4-yl)methyl)pyridin-2(1H)-one] |
| < 10 | 500 to 1000 | CC(c1cc(F)cc(Br)c1)n1ccc(-c2ccc3[nH]nc(-c4cnn(C)c4)c3c2)cc1=O (stereo not drawn) [Example 96, 1-(1-(3-bromo-5-fluorophenyl)ethyl)-4-(3-(1-methyl-1H-pyrazol-4-yl)-1H-indazol-5-yl)pyridin-2(1H)-one] |
| 10 to 50 | 1000 to 5000 | CC(c1ccc(F)c(Cl)c1)n1ccc(-c2ccc3[nH]nc(-c4cnn(C)c4)c3c2)cc1=O (stereo not drawn) [Example 97, 1-(1-(3-chloro-4-fluorophenyl)ethyl)-4-(3-(1-methyl-1H-pyrazol-4-yl)-1H-indazol-5-yl)pyridin-2(1H)-one] |
| < 10 | ≤ 500 | CNCC(c1cccc(Cl)c1)n1ccc(-c2ccc3[nH]nc(-c4cnn(C)c4)c3c2)cc1=O (stereo not drawn) [Example 98, 1-(1-(3-chlorophenyl)-2-(methylamino)ethyl)-4-(3-(1-methyl-1H-pyrazol-4-yl)-1H-indazol-5-yl)pyridin-2(1H)-one] |
| < 10 | 1000 to 5000 | CC(C)Oc1ccc(-c2n[nH]c3ccc(-c4ccn(Cc5cc(F)cc(Br)c5)c(=O)c4)cc23)cn1 [Example 99, 1-(3-bromo-5-fluorobenzyl)-4-(3-(6-isopropoxypyridin-3-yl)-1H-indazol-5-yl)pyridin-2(1H)-one] |
| 10 to 50 | 1000 to 5000 | CC(C)Oc1ccc(-c2n[nH]c3ccc(-c4ccn([C@H](CO)c5ccc(Cl)c(F)c5)c(=O)c4)cc23)cn1 [Example 100] |
| < 10 | ≤ 500 | Cc1cc(-c2n[nH]c3ncc(-c4ccn([C@H](CO)c5ccc(F)c(Cl)c5)c(=O)c4)cc23)ccn1 [Example 101, (S)-1-(1-(3-chloro-4-fluorophenyl)-2-hydroxyethyl)-4-(3-(2-methylpyridin-4-yl)-1H-pyrazolo[3,4-b]pyridin-5-yl)pyridin-2(1H)-one] |
| < 10 | ≤ 500 | CCOc1ccc(-c2n[nH]c3ccc(-c4ccn([C@H](CO)c5cc(F)cc(Br)c5)c(=O)c4)cc23)cn1 [Example 102, (S)-1-(1-(3-bromo-5-fluorophenyl)-2-hydroxyethyl)-4-(3-(6-ethoxypyridin-3-yl)-1H-indazol-5-yl)pyridin-2(1H)-one] |
| < 10 | ≤ 500 | COc1ccc(-c2n[nH]c3ccc(-c4ccn([C@H](CO)c5cc(F)cc(Br)c5)c(=O)c4)cc23)cn1 [Example 103, (S)-1-(1-(3-bromo-5-fluorophenyl)-2-hydroxyethyl)-4-(3-(6-methoxypyridin-3-yl)-1H-indazol-5-yl)pyridin-2(1H)-one] |
| 10 to 50 | 500 to 1000 | Cc1cc(-c2n[nH]c3ncc(-c4ccn(Cc5ccnc(C(F)(F)F)c5)c(=O)c4)cc23)ccn1 [Example 104, 4-(3-(2-methylpyridin-4-yl)-1H-pyrazolo[3,4-b]pyridin-5-yl)-1-((2-(trifluoromethyl)pyridin-4-yl)methyl)pyridin-2(1H)-one] |
| < 10 | 500 to 1000 | Cc1cc(-c2n[nH]c3ncc(-c4ccn(C(C)c5cc(F)cc(Br)c5)c(=O)c4)cc23)ccn1 (stereo not drawn) [Example 105, 1-(1-(3-bromo-5-fluorophenyl)ethyl)-4-(3-(2-methylpyridin-4-yl)-1H-pyrazolo[3,4-b]pyridin-5-yl)pyridin-2(1H)-one] |
| < 10 | 500 to 1000 | Cn1cc(-c2n[nH]c3ncc(-c4ccn([C@H](CO)c5cc(F)cc(Br)c5)c(=O)c4)cc23)cn1 [Example 106, (S)-1-(1-(3-bromo-5-fluorophenyl)-2-hydroxyethyl)-4-(3-(1-methyl-1H-pyrazol-4-yl)-1H-pyrazolo[3,4-b]pyridin-5-yl)pyridin-2(1H)-one] |
